Columns and labels:
SHP2 (PTPN11/SHP2-FL) = biological target: T1, SHP2 (PTPN11/SHP2-FL) (Homo sapiens, UniProt Q06124); test: SHP2 biochemical assay (DiFMUP prompt fluorescence); details: 0.5 nM SHP2, 0.35 μM activating peptide, DiFMUP 100 μM; read-out: SHP2 bichemical activity (IC50)
T1 construct: SHP2 (PTPN11/SHP2-FL, RBC produced, no cat #); purchased RBC no cat #
T1 sequence (Q06124 1-593): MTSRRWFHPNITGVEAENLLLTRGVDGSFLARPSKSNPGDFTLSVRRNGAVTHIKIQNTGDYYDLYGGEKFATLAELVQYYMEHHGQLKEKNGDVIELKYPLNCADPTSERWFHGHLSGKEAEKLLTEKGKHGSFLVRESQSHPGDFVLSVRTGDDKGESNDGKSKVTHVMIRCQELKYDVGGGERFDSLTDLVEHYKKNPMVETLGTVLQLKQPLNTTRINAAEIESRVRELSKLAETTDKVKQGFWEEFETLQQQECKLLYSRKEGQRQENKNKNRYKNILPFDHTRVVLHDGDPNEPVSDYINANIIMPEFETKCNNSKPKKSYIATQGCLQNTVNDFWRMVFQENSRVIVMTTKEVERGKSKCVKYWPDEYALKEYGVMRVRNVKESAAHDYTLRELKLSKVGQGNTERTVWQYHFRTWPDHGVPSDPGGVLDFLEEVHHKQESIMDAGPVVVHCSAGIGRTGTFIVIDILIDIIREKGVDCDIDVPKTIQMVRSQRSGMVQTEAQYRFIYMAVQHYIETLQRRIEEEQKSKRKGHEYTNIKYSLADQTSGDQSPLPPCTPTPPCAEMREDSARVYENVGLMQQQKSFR
Description: SHP2 is allosterically activated through binding of bis-tyro syiphorphorylated peptides to its Src Homology 2 (SH2) domains. The latter activation step leads to the release of the auto-inhibitory interface of SHP2, which in turn renders the SHP2 PTP active and available for substrate recognition and reaction catalysis. The catalytic activity of SHP2 was monitored using the surrogate substrate DiFMUP in a prompt fluorescence assay format. Specifically, the phosphatase reactions were performed at room temperature in 384-well black polystyrene plate, flat bottom, low flange, non-binding surface (Corning, Cat #3575) using a final reaction volume of 20 μL and the following assay buffer conditions: 60 mM HEPES, pH 7.2, 75 mM NaCl, 75 mM KCl, 1 mM EDTA, 0.01% Brij-35, 5 mM DTT, and 10% DMSO (final). The inhibition of SHP2 from the tested compounds (final concentrations varying from 0.003-100 μM) was monitored using an assay in which 0.5 nM of SHP2 (PTPN11/SHP2-FL, RBC produced, no cat #) was incubated with 0.35 μM of the peptide H2NLN(pY)IDLDLV(dPEG8)LST(pY)ASINFQK-amide. After 20 minutes of incubation at room temperature, the surrogate substrate DiFMUP (6,8-difluoro-7-hydroxy-4-methylcoumarin, Invitrogen, cat #D6567, 100 μM final concentration) was added to the reaction. The fluorescence signal was monitored using a microplate reader (Envision, Perkin-Elmer) using excitation and emission wavelengths of 355 nm and 460 nm, respectively. The inhibitor dose response curves were analyzed using normalized IC50 regression curve fitting with control based normalization.
The IC50 values of for Compounds disclosed are listed in Table 2, A: ≤10 nM; B: >10 nM and ≤100 nM; C: >100 nM and ≤1 uM; and D: >1 μM.

MiaPaCa-2 cells = test: MiaPaCa-2 Cell proliferation assay in 3D culture (CCK8); format: cell-based; details: Homo sapiens, MIA PaCa-2, 120 h; 3D spheroid culture, 5 days with compound, CCK8 readout
Description: MiaPaCa-2 Cell proliferation assay in 3D culture. To evaluate cell viability, MiaPaCa-2 cells in logarithmic growth phase were seeded at optimal density and grown in as spheroids. Cells were incubated for 24 hours prior to the addition of different concentrations of the compounds. Cells were cultured with the compounds for 5 days and the cell viability was assessed using CCK8. Briefly, 2500 cells were seeded in round bottom ultra-low attachment 96 well plates (coming) in growth media supplemented with 10% FBS and incubated at 37° C. for 24 hours. The compounds were dissolved in DMSO (Sigma) to obtain 10 mM stock solution. Then the compounds were serially diluted in 3-fold to ten concentrations; 5 μL of the dilution above was transferred to 95 uL culture media to obtain the 50× compound stock solution; 4 uL of the 50× compound above was then transferred to the wells containing cells with 196 μL of the culture medium to obtain the final 1× concentration. The final concentration of DMSO was 0.1%. Spheroid cells were incubated in compounds for 5 days. Then 20 μL WST-8 solution (DOJINDO, Cell Counting KIT-8) was added to each well. The plates were further incubated at 37° C. for 1.5 hours, and then absorbance at 450 nm was measured using a microplate reader. Each compound was tested in triplicate and the IC50 value was calculated using GraphPad Prism.
The IC50 values of for Compounds disclosed are listed in Table 2, A: ≤500 nM; B: >500 nM and ≤5 μM; C: >5 μM and ≤50 μM; and D: >50 μM.

Row | Compound | IC50 (SHP2 (PTPN11/SHP2-FL)) [nM] | IC50 (MiaPaCa-2 cells) [nM]
1 | CC1(N)CCN(c2cnc(Sc3cccc(NC(=O)NS(=O)(=O)c4ccccc4)c3Cl)cn2)CC1 [Example 1, N-((3-((5-(4-amino-4-methylpiperidin-1-yl)pyrazin-2-yl)thio)-2-chlorophenyl)carbamoyl)benzenesulfonamide] | 10 to 100 | ≤ 500
2 | CC1(CN)CCN(c2cnc(Sc3cccc(NC(=O)NS(=O)(=O)c4ccccc4)c3Cl)cn2)CC1 [Example 2, N-((3-((5-(4-(aminomethyl)-4-methylpiperidin-1-yl)pyrazin-2-yl)thio)-2-chlorophenyl)carbamoyl)benzenesulfonamide] | ≤ 10 | ≤ 500
3 | CC1(N)CCN(c2cnc(Sc3cccc(C(=O)NS(=O)(=O)c4ccccc4)c3Cl)cn2)CC1 [Example 3, 3-((5-(4-amino-4-methylpiperidin-1-yl)pyrazin-2-yl)thio)-2-chloro-N-(phenylsulfonyl)benzamide] | ≤ 10 | 500 to 5000
4 | CC1(N)CCN(c2cnc(Sc3cccc(NC(=O)NS(=O)(=O)c4ccccc4)c3Cl)c(N)n2)CC1 [Example 4, N-((3-((3-amino-5-(4-amino-4-methylpiperidin-1-yl)pyrazin-2-yl)thio)-2-chlorophenyl)carbamoyl)benzenesulfonamide] | ≤ 10 | ≤ 500
5 | C[C@@H]1OCC2(CCN(c3cnc(Sc4cccc(NC(=O)NS(=O)(=O)C5CCN(C)CC5)c4Cl)cn3)CC2)[C@@H]1N [Example 70, N-((3-((5-((3S,4S)-4-amino-3-methyl-2-oxa-8-azaspiro[4.5]decan-8-yl)pyrazin-2-yl)thio)-2-chlorophenyl)carbamoyl)-1-methylpiperidine-4-sulfonamide] |  | ≤ 500
6 | C[C@@H]1OCC2(CCN(c3cnc(Sc4ccnc(C(=O)NS(=O)(=O)c5ccccc5)c4Cl)cn3)CC2)[C@@H]1N [Example 71, 4-((5-((3S,4S)-4-amino-3-methyl-2-oxa-8-azaspiro[4.5]decan-8-yl)pyrazin-2-yl)thio)-3-chloro-N-(phenylsulfonyl)picolinamide] |  | 500 to 5000
7 | C[C@@H]1OCC2(CCN(c3cnc(Sc4cccc(NC(=O)NS(=O)(=O)c5ccncc5)c4Cl)cn3)CC2)[C@@H]1N [Example 72, N-((3-((5-((3S,4S)-4-amino-3-methyl-2-oxa-8-azaspiro[4.5]decan-8-yl)pyrazin-2-yl)thio)-2-chlorophenyl)carbamoyl)pyridine-4-sulfonamide] |  | ≤ 500
8 | C[C@@H]1OCC2(CCN(c3cnc(Sc4cccc(NC(=O)NS(=O)(=O)C5CCCC5)c4Cl)cn3)CC2)[C@@H]1N [Example 73, N-((3-((5-((3S,4S)-4-amino-3-methyl-2-oxa-8-azaspiro[4.5]decan-8-yl)pyrazin-2-yl)thio)-2-chlorophenyl)carbamoyl)cyclopentanesulfonamide] |  | ≤ 500
9 | C[C@@H]1OCC2(CCN(c3cnc(Sc4cccc(NC(=O)NS(=O)(=O)N5CCOCC5)c4Cl)cn3)CC2)[C@@H]1N [Example 74, N-((3-((5-((3S,4S)-4-amino-3-methyl-2-oxa-8-azaspiro[4.5]decan-8-yl)pyrazin-2-yl)thio)-2-chlorophenyl)carbamoyl)morpholine-4-sulfonamide] |  | ≤ 500
10 | C[C@@H]1OCC2(CCN(c3cnc(Sc4cccc(NC(=O)NS(=O)(=O)N5CCCCC5)c4Cl)cn3)CC2)[C@@H]1N [Example 75, N-((3-((5-((3S,4S)-4-amino-3-methyl-2-oxa-8-azaspiro[4.5]decan-8-yl)pyrazin-2-yl)thio)-2-chlorophenyl)carbamoyl)piperidine-1-sulfonamide] |  | ≤ 500
11 | Cc1noc(C)c1S(=O)(=O)NC(=O)Nc1nccc(Sc2cnc(N3CCC4(CC3)CO[C@@H](C)[C@H]4N)cn2)c1Cl [Example 76, N-((4-((5-((3S,4S)-4-amino-3-methyl-2-oxa-8-azaspiro[4.5]decan-8-yl)pyrazin-2-yl)thio)-3-chloropyridin-2-yl)carbamoyl)-3,5-dimethylisoxazole-4-sulfonamide] |  | ≤ 500
12 | C[C@@H]1OCC2(CCN(c3cnc(Sc4ccnc(NC(=O)NS(C)(=O)=O)c4Cl)cn3)CC2)[C@@H]1N [Example 77, N-((4-((5-((3S,4S)-4-amino-3-methyl-2-oxa-8-azaspiro[4.5]decan-8-yl)pyrazin-2-yl)thio)-3-chloropyridin-2-yl)carbamoyl)methanesulfonamide] |  | ≤ 500
13 | C[C@@H]1OCC2(CCN(c3cnc(Sc4cccc(NC(=O)NS(=O)(=O)c5ccc(F)cc5)c4Cl)cn3)CC2)[C@@H]1N [Example 78, N-((3-((5-((3S,4S)-4-amino-3-methyl-2-oxa-8-azaspiro[4.5]decan-8-yl)pyrazin-2-yl)thio)-2-chlorophenyl)carbamoyl)-4-fluorobenzenesulfonamide] |  | ≤ 500
14 | C[C@@H]1OCC2(CCN(c3cnc(Sc4cccc(NC(=O)NS(=O)(=O)c5cnn(C)c5)c4Cl)cn3)CC2)[C@@H]1N [Example 79, N-((3-((5-((3S,4S)-4-amino-3-methyl-2-oxa-8-azaspiro[4.5]decan-8-yl)pyrazin-2-yl)thio)-2-chlorophenyl)carbamoyl)-1-methyl-1H-pyrazole-4-sulfonamide] |  | ≤ 500
15 | C[C@@H]1OCC2(CCN(c3cnc(Sc4cccc(NS(=O)(=O)NC(=O)c5ccccc5)c4Cl)cn3)CC2)[C@@H]1N [Example 80, N—(N-(3-((5-((3S,4S)-4-amino-3-methyl-2-oxa-8-azaspiro[4.5]decan-8-yl)pyrazin-2-yl)thio)-2-chlorophenyl)sulfamoyl)benzamide] |  | ≤ 500
16 | C[C@@H]1OCC2(CCN(c3cnc(Sc4cccc(NC(=O)NS(=O)(=O)N5CCC(O)C5)c4Cl)cn3)CC2)[C@@H]1N (stereo partly drawn) [Example 81, N-((3-((5-((3S,4S)-4-amino-3-methyl-2-oxa-8-azaspiro[4.5]decan-8-yl)pyrazin-2-yl)thio)-2-chlorophenyl)carbamoyl)-3-hydroxypyrrolidine-1-sulfonamide] |  | ≤ 500
17 | C[C@@H]1OCC2(CCN(c3cnc(Sc4cccc(NC(=O)NS(=O)(=O)C5CCC5)c4Cl)cn3)CC2)[C@@H]1N [Example 82, N-((3-((5-((3S,4S)-4-amino-3-methyl-2-oxa-8-azaspiro[4.5]decan-8-yl)pyrazin-2-yl)thio)-2-chlorophenyl)carbamoyl)cyclobutanesulfonamide] |  | ≤ 500
18 | C[C@@H]1OCC2(CCN(c3cnc(Sc4cccc(NC(=O)NS(=O)(=O)C5CCOC5)c4Cl)cn3)CC2)[C@@H]1N (stereo partly drawn) [Example 83, N-((3-((5-((3S,4S)-4-amino-3-methyl-2-oxa-8-azaspiro[4.5]decan-8-yl)pyrazin-2-yl)thio)-2-chlorophenyl)carbamoyl)tetrahydrofuran-3-sulfonamide] |  | ≤ 500
19 | C[C@@H]1OCC2(CCN(c3cnc(Sc4cccc(NC(=O)NS(=O)(=O)N5CCC(N)C5)c4Cl)cn3)CC2)[C@@H]1N (stereo partly drawn) [Example 84, 3-amino-N-((3-((5-((3S,4S)-4-amino-3-methyl-2-oxa-8-azaspiro[4.5]decan-8-yl)pyrazin-2-yl)thio)-2-chlorophenyl)carbamoyl)pyrrolidine-1-sulfonamide] |  | ≤ 500
